US11840551B2, “Compositions and methods of modulating the immune response by activating alpha protein kinase 1” (Shanghai Yao Yuan Biotechnology Co., Ltd., priority 2017, dated 2023)

Experiments:
ALPK1 [1] = target: T1, ALPK1 (Homo sapiens, UniProt Q96QP1); assay: IL8 secretion in HEK293 cells (IL8 ELISA) as indicator of ALPK1 activation; conditions: for IL8 secretion in HEK293 cells: without FBS, serial dilutions, 4 hours; for restoration of H1b-ADP's activity in the cell based assay (IL8 secretion): added to the FBS-containing medium, HEK293 cells
Protocol: Phosphatase such as the alkaline phosphatase may be responsible for H1b-ADP hydrolysis. We pre-mixed H1b-ADP with phosphatase inhibitor sodium orthovanadate (Na3VO4) before incubation with FBS. […] We hypothesized that the accumulation of hydrolysis product AMP can inhibit phosphatase activity.
A number of H1b-ADP derivative compounds were made as described herein and tested for biological activity as agonists of ALPK1 in vitro. In these experiments, serial dilutions of the compounds were added to the tissue culture media of HEK293 cells with (FIG. 27B, FIG. 28B, FIG. 29B) or without (FIG. 26, FIG. 27A, FIG. 28A, FIG. 29A) 10% FBS, as indicated in the figures. After 4 hours, the cell supernatant was collected and analyzed for IL8 concentration using IL8 ELISA (BD) as an indicator of ALPK1 activation.

CT26 cells = assay: CT26 tumor xenograft model, tumor growth (tumor volume); assay type: in vivo, BALB/c mice; conditions: Example 18, FIG. 30; 50 nmol, injections at days 7, 9, 11
Protocol: We used a CT26 tumor xenograft model to test the anti-cancer activity of H1b-ADP. Tumor cells (2×10^5 per 100 uL CT26 cells) were inoculated subcutaneously into the right flank of BALB/c mice. At day 6, mice whose tumors had reached 3-5 mm in diameter were randomized and grouped into three groups (n=8 each group), control, HMP-1bP (580 ug), and H1b-ADP (1.2 ug). Injections were performed using a total volume of 20 uL at days 6, 8, 10, 12, and 14 post inoculation. Tumor volumes were calculated every 2 days from caliper measurements of tumor dimension using the formula (L×W^2)/2, where L is the longer measurement.
To test whether H1b-ADP could augment an anti-tumor response by a checkpoint inhibitor, we tested the effects of co-administration with an anti-PD1 antibody. Tumor cells (2×10^5 per 100 μL CT26 cells) were inoculated subcutaneously into the left and right flanks of BALB/c mice. At day 7, mice whose tumors had reached 5 mm in diameter were randomized and grouped (n=8 each group) into the following four groups: anti-PD1 antibody; rat IgG; H1b-ADP+rat IgG; H1b-ADP+anti-PD1 antibody. We utilized RMP1-14 as the anti-PD1 antibody (10 mg/kg) and a rat IgG 2a (2A3) as the control IgG. Each of the anti-PD-1 antibody and the control IgG was administered intraperitoneally in a 200 μL volume on days 6, 10, 12, and 17 post-inoculation. H1b-ADP (6.2 μg) was intratumorally injected in a 20 μL volume at day 6, 8, 10, 12, and 15. Tumor volumes were calculated every 2 days from caliper measurements of tumor dimensions using the formula (L×W^2)/2, where L is the longer measurement. The results are shown in FIG. 13A for injected tumors and FIG. 13B for distant tumors. […]
The experiment was carried out as combo experiments of anti-PD1 except for the following variations. At day 6, mice whose tumors had reached 5 mm in diameter were randomized and grouped into the following four groups: anti-CTLA-4 antibody; rat IgG; H1b-ADP+rat IgG; H1b-ADP+anti-CTLA-4 antibody. We utilized 9D9 (BioxCell) as the anti-CTLA-4 antibody and a rat IgG 2b isotype (MPC-11 clone, BE0086, BioXCell) as the control IgG. Each of the anti-CTLA-4 antibody (25 μg) and the control IgG (25 μg) was administered intraperitoneally in a 200 μL volume on days 6 and 9 post-inoculation. H1b-ADP (6.2 μg) was administered intratumorally in a 20 μL volume on days 6, 7, 9, 11 post-inoculation.
The experiment was carried out as combo experiments of anti-PD1 except for the following variations. At day 6, mice whose tumors had reached 5 mm in diameter were randomized and grouped into the following four groups: c-di-AM(PS)2; PBS; H1b-ADP; H1b-ADP+c-di-AM(PS)2. We utilized c-di-AM(PS)2 as the STING agonist. […]

[2] = test system: phosphatase activity in the serum; assay: Incubation of H1b-ADP with FBS, product analysed by LC-MS; assay type: in vitro ADME, bovine
Text: (§1) FBS contains 110-352 μU/ml alkaline phosphatase.

[3] = test system: bovine alkaline phosphatase; assay: Incubation of H1b-ADP with bovine alkaline phosphatase; assay type: biochemical; conditions: H1b-ADP incubated with bovine alkaline phosphatase, increasing amount of Na3VO4
Text: as §1

[4] = test system: Cxcl1, Cxcl11, IL1b, and IL6 in mouse liver and lung tissue; assay: Tissue expression of chemokines and cytokines after subcutaneous injection (qPCR); assay type: in vivo, C57 mice; conditions: subcutaneous, 2, 10, 50, 200 nmol tested, tissue harvested three hours later
Protocol: In additional experiments, Compound 1 was injected subcutaneously into 7 week old C57 mice at concentrations of 2, 10, 50, and 200 nmol. Tissue was harvested three hours later and RNA extracted. Quantitative PCR (qPCR) was performed to determine the tissue expression levels Cxcl1, Cxcl11, IL1b, and IL6 in mouse liver (FIG. 32A) and lung (FIG. 32B) tissue. Additional chemokines and cytokines were assayed in the lung tissue.

ALPK1 [5] = target: T1, ALPK1; assay: In vitro kinase assay of ALPK1-dependent TIFA phosphorylation; assay type: biochemical; conditions: FIG. 7, chemically-synthesized compounds
Protocol: We performed an in vitro kinase assay with H1b-ADP and H1b-ADP-6L along with ALPK1 protein (2 nM), and TIFA protein (1.6 uM) in kinase buffer containing 50 uM ATP. TIFA phosphorylation was analyzed by denaturing gel electrophoresis followed by western blotting using an anti-phosphothreonine antibody. H1b-ADP or H1b-ADP-6L was added at 2 nM, 0.4 nM, 80 pM, 16 pM, and 3 pM.
To test this, we performed an in vitro kinase reaction for ALPK1-dependent TIFA phosphorylation in the presence of either HBP or HIdA purified from E. coli containing inactivated HIdE, or in the presence of HBP and HIdA purified from the same HIdE wild-type E. coli used in the previous experiments. Phosphorylated TIFA (three concentrations, 1%, 0.2% and […]) was detected as described above by denaturing gel electrophoresis followed by Western analysis.

ALPK1 [6] = target: T1, ALPK1; assay: IL-8 and TNFα mRNA expression in HEK293 cells with control or ALPK1-directed siRNA (qPCR); assay type: cell-based; set-up: silence ALPK1 expression in HEK293 cells; endogenous in cells; host or cells: HEK293; conditions: control vs ALPK1-directed siRNA, 4 hours, HBP 500, 100, 20 uM, HMP-1bP 500, 100 uM, H1b-ADP 100, 20, 4, 0.8 nM
Protocol: To test whether HBP, HMP-1bP, and H1b-ADP were able to induce cytokine expression in an ALPK1 dependent manner, we used an ALPK1-directed small interfering RNA (siRNA) to silence ALPK1 expression in HEK293 cells. Cells were plated (1×10^4 cells/well) into 96-well plates and transfected with either control siRNA or ALPK1-directed siRNA according to the manufacturer's protocols (Lipofectamine™ RNAiMax™, Invitrogen 13778075). Following 2 days of culture, either (1) HBP (500 uM, 100 uM, 20 uM, FIG. 2A-2B) (2) HMP-1bP (500 uM, 100 uM, FIG. 3A-3B), (3) H1b-ADP (100 nM, 20 nM, 4 nM, 0.8 nM, FIG. 4A-4B) was added to culture medium and cells were harvested 4 hours later.

ALPK1 [7] = target: T1, ALPK1; assay: Thermal shift assay (SYPRO Orange) for binding to ALPK1; conditions: ALPK1 7 uM; 1, 5, 25, 125 uM compound; H1b-ADP shift at 5, 25 and 125 uM
Text: The thermal shift assay is widely used to determine the binding of a molecule to a protein of interest. The assay is based on the increase in thermal energy required for denaturation of a protein where another molecule is bound to the protein. SYPRO Orange is a fluorescent compound used in the detection of thermal shift. SYPRO Orange binds to hydrophobic surfaces of the protein, and water strongly quenches its fluorescence. When the protein unfolds, the exposed hydrophobic surfaces bind the dye, resulting in an increase in fluorescence. When another molecule is bound to the protein, an increase in the temperature required for unfolding of the protein is observed.
This assay system was used to determine whether or not chemically synthesized HBP, HMP-1bP, and H1b-ADP directly bind to ALPK1. […] Only H1b-ADP induced a shift of more than 1 degree, at each of the three highest concentrations tested, 5 uM, 25 uM, and 125 uM.

ALPK1 [8] = target: T1, ALPK1; assay: Cell-free kinase assay of ALPK1 autophosphorylation (Western, anti-phospho-threonine); assay type: biochemical; conditions: 2 nM ALPK1 with ATP, 25° C., 1 h; H1b-ADP 10, 1, 0.2 nM; HBP and HMP-1bP 1, 10, 100 nM
Protocol: ALPK1 activation results in its autophosphorylation. Accordingly, we next asked whether the binding of H1b-ADP to ALPK1 was sufficient to induce ALPK1 autophosphorylation. Phosphorylation assays were performed according to standard protocols. Briefly, ALPK1 was incubated (2 nM, 25° C., 1 h) in assay buffer (20 μl, 25 mM HEPES pH 7.5, 50 mM KCl, 0.1 mM EDTA, 0.1 mM EGTA, 2 mM DTT, 1.5 mM CaCl2, 10 mM MgCl2) with ATP and chemically synthesized HBP, HMP-1bP, or H1b-ADP followed by denaturing gel electrophoresis and Western analysis with an anti-phospho-threonine antibody (CST) to detect autophosphorylation of ALPK1. […] The range of concentrations of HBP and HMP-1bP used in this assay (1 nM, 10 nM, 100 nM) was 10-fold higher than that used for H1b-ADP.

T1 sequence (Q96QP1 whole entry): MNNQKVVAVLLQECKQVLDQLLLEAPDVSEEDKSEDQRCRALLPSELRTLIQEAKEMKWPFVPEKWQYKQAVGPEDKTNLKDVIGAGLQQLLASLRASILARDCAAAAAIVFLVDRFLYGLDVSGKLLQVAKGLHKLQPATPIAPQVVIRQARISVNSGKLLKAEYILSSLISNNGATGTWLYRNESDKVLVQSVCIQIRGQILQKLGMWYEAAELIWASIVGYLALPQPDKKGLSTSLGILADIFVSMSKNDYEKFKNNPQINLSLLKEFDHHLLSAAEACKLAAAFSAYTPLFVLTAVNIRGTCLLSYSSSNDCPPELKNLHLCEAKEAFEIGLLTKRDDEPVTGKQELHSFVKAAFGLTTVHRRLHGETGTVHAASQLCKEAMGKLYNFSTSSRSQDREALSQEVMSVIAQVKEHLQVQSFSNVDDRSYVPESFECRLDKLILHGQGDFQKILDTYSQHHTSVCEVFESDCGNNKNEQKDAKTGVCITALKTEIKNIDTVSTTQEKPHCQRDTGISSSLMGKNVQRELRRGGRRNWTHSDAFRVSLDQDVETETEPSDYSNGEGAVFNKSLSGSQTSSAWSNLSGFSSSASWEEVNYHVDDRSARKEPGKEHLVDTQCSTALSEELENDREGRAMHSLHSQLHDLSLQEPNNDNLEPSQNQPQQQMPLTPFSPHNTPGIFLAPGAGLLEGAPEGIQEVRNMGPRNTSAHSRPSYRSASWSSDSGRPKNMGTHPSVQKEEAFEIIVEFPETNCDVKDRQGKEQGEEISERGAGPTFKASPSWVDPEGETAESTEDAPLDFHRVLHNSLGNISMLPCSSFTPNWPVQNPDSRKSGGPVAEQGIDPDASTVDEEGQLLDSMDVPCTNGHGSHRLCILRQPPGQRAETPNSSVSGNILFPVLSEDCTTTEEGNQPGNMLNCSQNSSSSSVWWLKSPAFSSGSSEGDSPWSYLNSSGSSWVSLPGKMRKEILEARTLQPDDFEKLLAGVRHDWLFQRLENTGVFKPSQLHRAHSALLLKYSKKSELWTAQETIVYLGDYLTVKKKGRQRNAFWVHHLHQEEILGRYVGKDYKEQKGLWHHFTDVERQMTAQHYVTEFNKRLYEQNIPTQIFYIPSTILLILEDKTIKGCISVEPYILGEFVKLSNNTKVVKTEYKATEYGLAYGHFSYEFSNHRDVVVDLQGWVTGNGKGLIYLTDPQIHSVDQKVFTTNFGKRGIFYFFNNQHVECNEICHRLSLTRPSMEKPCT

`Nc1ncnc2c1ncn2[C@@H]1O[C@H](COP(=O)(O)OP(=O)(O)O[C@@H]2OC([C@H](O)CO)[C@@H](O)C(O)C2O)C(F)C1O` (stereo in doubt) [Compound 2, Adenosine-3′-fluoro-5′-(D-glycero-β-D-mannoheptopyranosyl) diphosphate] was tested, and the “IL8 secretion in HEK293 cells” value (ALPK1 [1]) was “activate IL8 secretion” and the tumor growth (CT26 cells) was “reduced tumor growth”.
With `[Na+].[Na+].[Na+].[O]=[V]([O-])([O-])[O-]` [Na3VO4, sodium orthovanadate] the “restoration of H1b-ADP's activity in the cell based assay (IL8 secretion)” value (ALPK1 [1]) was “could restore H1b-ADP's activity in the cell based assay”, the “H1b-ADP hydrolysis in FBS” value ([2]; H1b-ADP pre-mixed with 1 mM Na3VO4 before incubation with FBS) was “effectively inhibited H1b-ADP hydrolysis” and the “phosphatase activity on H1b-ADP” value [3] was “the phosphatase activity was blocked by increasing amount of Na3VO4”.
For `Nc1ncnc2c1ncn2[C@@H]1O[C@H](COP(=O)(O)O)[C@@H](O)[C@H]1O` [AMP, reference compound], the “restoration of H1b-ADP's activity in the cell based assay (IL8 secretion)” value (ALPK1 [1]) was “could restore H1b-ADP's activity in the cell based assay” and the “phosphatase activity in serum (H1b-ADP hydrolysis)” value ([2]; pre-treatment of H1b-ADP with AMP before serum incubation) was “inhibited phosphatase activity and the inhibition was AMP dose-dependent”.
`CC(=O)OC[C@@H](OC(C)=O)[C@H]1O[C@@H](OP(=O)(O)OP(=O)(O)OC[C@H]2O[C@@H](n3cnc4c(N)ncnc43)[C@H](O)[C@@H]2F)[C@@H](OC(C)=O)[C@@H](OC(C)=O)[C@@H]1OC(C)=O` [Compound 1, (2S,3S,4S,5R,6R)-2-(((((((2R,3S,4S,5R)-5-(6-amino-9H-purin-9-yl)-3-fluoro-4-hydroxytetrahydrofuran-2-yl)methoxy)(hydroxy)phosphoryl)oxy)(hydroxy)phosphoryl)oxy)-6-((R)-1,2-diacetoxyethyl)tetrahydro-2H-pyran-3,4,5-triyl triacetate] was tested, and the “dose that activates an inflammatory response in liver tissue” value [4] was 2 nmol, the “dose that activates an inflammatory response in lung tissue” value [4] was 200 nmol and the “IL8 secretion in HEK293 cells” value (ALPK1 [1]) was “activate IL8 secretion”. The tumor growth (CT26 cells) was “reduced tumor growth”.
In the case of `O=P(O)(O)OC[C@@H](O)[C@H]1O[C@@H](OP(=O)(O)O)[C@@H](O)[C@@H](O)[C@@H]1O` [HBP, D-glycero-β-D-manno-heptose 1,7-bisphosphate], the “phosphorylation of the ALPK1 substrate TIFA” value (ALPK1 [5]) is reported as “TIFA is phosphorylated only in the presence of H1b-ADP”, the “IL-8 mRNA expression” value (ALPK1 [6]) is reported as “increased in an ALPK1-dependent manner” and the “TNFα mRNA expression” value (ALPK1 [6]) is reported as “increased in an ALPK1-dependent manner”. For the same compound, the “thermal shift of ALPK1” value (ALPK1 [7]) was “Neither HBP nor HMP-1bP were able to induce a thermal shift” and the “autophosphorylation of ALPK1” value (ALPK1 [8]) was “not HBP or HMP-1bP induces ATP-dependent autophosphorylation”.
